In PubChem BioAssay (NCI):
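In this assay, cells in 96-well plates receive the compound at five concentrations for 48 hours. Endpoints are linearly interpolated between the surrounding concentrations. TGI: concentration producing complete growth inhibition.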

Experiments:
Assay in all cases: inhibition of tumour cell growth, NCI panel, 48 h
[1] = test system: HOP-62 NSCLC
[2] = test system: 786-0 renal
[3] = test system: KM20L2 colon
[4] = test system: HT29 colon
[5] = test system: OVCAR-8 ovarian
[6] = test system: SK-MEL-5 melanoma
[7] = test system: ACHN renal
[8] = test system: SF-295 CNS
[9] = test system: HCT-15 colon
[10] = test system: RPMI-8226 leukemia
[11] = test system: RXF-631 renal
[12] = test system: IGROV1 ovarian
[13] = test system: SK-MEL-28 melanoma
[14] = test system: A549 NSCLC
[15] = test system: OVCAR-5 ovarian
[16] = test system: SW-620 colon
[17] = test system: NCI-H226 lung
[18] = test system: CCRF-CEM leukemia
[19] = test system: OVCAR-3 ovarian
[20] = test system: A498 renal
[21] = test system: OVCAR-4 ovarian
[22] = test system: SNB-78 CNS
[23] = test system: U251 CNS
[24] = test system: EKVX NSCLC
[25] = test system: KM12 colon
[26] = test system: DMS 273 small cell lung
[27] = test system: UO-31 renal
[28] = test system: DMS 114 small cell lung
[29] = test system: HL-60(TB) leukemia
[30] = test system: LXFL 529 NSCLC
[31] = test system: UACC-62 melanoma
[32] = test system: K-562 leukemia
[33] = test system: RXF 393 renal
[34] = test system: NCI-H23 lung
[35] = test system: UACC-257 melanoma
[36] = test system: MALME-3M melanoma
[37] = test system: SK-OV-3 ovarian
[38] = test system: HCT-116 colon
[39] = test system: M19-MEL melanoma
[40] = test system: SF-539 CNS
[41] = test system: SN12C renal
[42] = test system: XF 498 CNS
[43] = test system: CAKI-1 renal
[44] = test system: M14 melanoma
[45] = test system: SK-MEL-2 melanoma
[46] = test system: MOLT-4 leukemia
[47] = test system: HCC-2998 colon
[48] = test system: TK-10 renal
[49] = test system: NCI-H460 lung
[50] = test system: SNB-75 CNS
[51] = test system: NCI-H522 lung
[52] = test system: HS 578T breast
[53] = test system: MDA-MB-435
[54] = test system: MCF7 breast
[55] = test system: PC-3 prostate
[56] = test system: DLD-1 colon
[57] = test system: SR leukemia
[58] = test system: BT-549 breast
[59] = test system: SNB-19 CNS
[60] = test system: COLO 205 colon
[61] = test system: HOP-18 NSCLC
[62] = test system: DU-145 prostate
[63] = test system: NCI/ADR-RES ovarian
[64] = test system: MDA-MB-231 breast
[65] = test system: LOX IMVI melanoma
[66] = test system: HOP-92 NSCLC
[67] = test system: SF-268 CNS
[68] = test system: MDA-N

Measured: TGI

CC(C)(C)c1ccccc1NS(=O)(=O)c1ccccc1
> 100 µM: [1] | [2] | [3] | [4] | [5] | [6] | [7] | [8] | [9] | [10] | [11] | [12] | [13] | [14] | [15] | [16] | [18] | [19] | [20] | [21] | [22] | [23] | [24] | [25] | [26] | [27] | [28] | [29] | [30] | [31] | [32] | [33] | [34] | [35] | [36] | [37] | [38] | [39] | [40] | [41] | [42] | [43] | [44] | [45] | [46] | [47] | [48] | [49] | [50]
88.2 µM: [17]

O=C1/C(=C/c2ccc(O)cc2)CCC1CNc1ccc(Cl)cc1 (stereo not given)
5.86 µM: [31]
6.45 µM: [46]
6.82 µM: [54]
11.7 µM: [35]
10.3 µM: [48]
14.2 µM: [3]
28.6 µM: [59]
9.82 µM: [27]
5.77 µM: [38]
2.49 µM: [51]
> 100 µM: [52]
2.83 µM: [9]
2.39 µM: [30]
32.1 µM: [11]
20.1 µM: [63]
28.7 µM: [45]
13.5 µM: [61]
12.1 µM: [26]
9.02 µM: [28]
26.5 µM: [58]
21.3 µM: [23]
3.24 µM: [60]
7.24 µM: [65]
8.45 µM: [25]
16.7 µM: [8]
3.03 µM: [16]
25.8 µM: [17]
15.1 µM: [12]
21.5 µM: [24]
20.8 µM: [6]
33.8 µM: [22]
8.84 µM: [43]
5.51 µM: [57]
11.2 µM: [18]
2.97 µM: [56]
3.57 µM: [44]
9.56 µM: [64]
19.8 µM: [67]
23.5 µM: [15]
7.1 µM: [5]
15.6 µM: [33]
26.2 µM: [62]
6.1 µM: [19]
8.86 µM: [21]
29.7 µM: [50]
18.2 µM: [55]
24.3 µM: [34]
14.9 µM: [4]
15.5 µM: [40]
10.8 µM: [10]
20.9 µM: [37] | [68]
17.3 µM: [53]
11.6 µM: [7]
12.5 µM: [39]
20.7 µM: [1]
4.58 µM: [2]
14.8 µM: [47]
28.4 µM: [20] | [66]
10.2 µM: [32]
23 µM: [49]
24.2 µM: [13]
9.25 µM: [41]
8.57 µM: [36]
21.6 µM: [14]

CCOC(=O)[C@H]1Nc2ccc(O)cc2C2c3ccccc3CC21 (stereo not given in full)
91.8 µM: [19]
98 µM: [13]
> 100 µM: [1] | [2] | [3] | [4] | [5] | [6] | [7] | [9] | [10] | [51] | [11] | [12] | [14] | [15] | [16] | [17] | [20] | [21] | [22] | [23] | [24] | [25] | [26] | [27] | [28] | [30] | [31] | [56] | [32] | [59] | [60] | [34] | [35] | [36] | [61] | [38] | [39] | [40] | [65] | [41] | [43] | [44] | [45] | [46] | [47] | [67] | [48] | [49] | [50]
91.9 µM: [33]

CC(=O)OCCOCNC(=S)N/N=C(\C)c1ccco1
> 100 µM: [1] | [2] | [3] | [4] | [5] | [6] | [7] | [8] | [9] | [51] | [11] | [12] | [13] | [14] | [15] | [16] | [17] | [18] | [19] | [20] | [21] | [22] | [23] | [24] | [25] | [26] | [27] | [28] | [30] | [31] | [56] | [32] | [33] | [59] | [60] | [34] | [35] | [36] | [61] | [37] | [38] | [39] | [40] | [65] | [41] | [44] | [45] | [47] | [67] | [48] | [49] | [50]
